What all share (type): in vivo
Data set [1] has as its system brown rice planthoppers (Nilaparavata lugens). As to the kind of experiment: Test Example 7: mortality and residual effect on brown rice planthoppers on sprayed potted rice plants. The following applies: Oryza sativa, 24 h. On the procedure:
The emulsifiable concentrates of the following compounds and control compounds obtained according to Formulation example 2 were each diluted with water one thousand times (corresponding to 100 ppm) and each of thus prepared solutions was sprayed at the rate of 20 ml/2 pots to the rice plant seedlings planted in Wagner pots having a surface area of one ten thousandth are. After air-drying, the threated plants were covered with the iron wire cages, and about 15 adults of brown rice planthoppers (Nilaparavata lugens) were liberated thereto. Further, about 15 adults thereof were also liberated thereto 4 days after the application to examine the residual effects. Twenty four hours after each liberation, the dead and alive adults were examined to calculate the mortality.

In data set [2] the test system is carmine spider mite (Tetranychus cinnabarinus). As to the kind of experiment: Test Example 8: degree of damage of kidney bean plant by carmine spider mite. Also noted: key: -: No damage is observed.; +: Slight damage is observed.; ++: The same damage as in the untreated plot is observed. As to conditions: 500 ppm, sprayed 15 ml/pot plus 2 ml to soil; after 8 days; 25° C. On the procedure:
The female adults of carmine spider mite (Tetranychus cinnabarinus) were put at a rate of 10 adults/leaf on the leaves of potted kidney bean (at the primordial leaf stage) which had elapsed 7 days after sowing, and placed in a constant-temperature room kept at 25° C. After 6 days, the 200-fold aqueous dilute solutions (corresponding to 500 ppm), prepared from the emulsifiable concentrates of the following present compounds and control compounds prepared according to Formulation example 2, were each sprayed at a rate of 15 ml/pot on a turn table. At the same time, the soil in the pot was treated with 2 ml of each aqueous solution. After 8 days, the degree of damage of the plant by the mite was examined.
-: No damage is observed.
+: Slight damage is observed.
++: The same damage as in the untreated plot is observed.

For data set [3], the system named is common mosquito (Culex pipiens pallens). Kind of data set: Test Example 1: mortality of larvae and inhibition of emergence of common mosquito. As to conditions: for Inhibitory ratio of emergence: 3.5 ppm, counted when all mosquitoes of no treatment group had emerged; for mortality at 3.5 ppm: Culex pipiens, 24 h, last instar larvae, after one day. On the procedure: The emulsifiable concentrates of the following present compounds obtained according to Formulation example 2 were each diluted with water so as to obtain respective aqueous solutions containing 3.5 ppm of said compounds, respectively. One hundred ml of thus diluted aqueous solutions were poured into respective polyethylene cups of 180 ml volume, and 20 of the last instar larvae of common mosquito (Culex pipiens pallens) were liberated thereto. After one day, the dead or alive of the larvae were examined. Thereafter, the feed was added to respective cups and the number of emerged mosquitoes of the respective cups was counted when all the mosquitoes of no treatment group had […] to calculate the inhibitory ratios of the emergence. The mortality and the inhibitory ratio of the emergence are shown according to the following three criteria: mortality: A; 90% or more, […] inhibitory: A; 90% or more, ratio of emergence B; less than 90% to 80% C; less than 80%.

The subject of data set [4] is young Japanese carp (Cyprinida carpio). As to the kind of experiment: Test Example 9: fish toxicity test. The following applies: forty-eight hours, 25°±1° C., Probit method, 2880 min. On the procedure: Twenty liters of each of the aqueous solutions containing the prescribed concentrations of the present compounds and comparative control one, and 10 young carp were liberated thereto. Forty-eight hours after, the dead and alive carp were examined to obtain LC50 value, (50% lethal concentration) according to Probit method. All the tests were carried out in thermostatic aquaria whose temperatures were kept at 25°±1° C.
young Japanese carp (Cyprinida carpio)
Average body length ±S.D.: 2.94±0.19 cm.
Average body weight ±S.D.: 0.65±0.13 g.

In data set [5] the test system is resistant strain of green rice leafhopper (Nephotetix cincticecs). As to the kind of experiment: Test Example 3: LC50 against adults of a resistant strain of green rice leafhopper (rice seedling dipping). The following applies: Nephotettix cincticeps, 24 h, read-out: LC50 value. On the procedure: The emulsifiable concentrates of the following present compounds and control compounds obtained according to Formulation example 2 were each diluted with water to a prescribed concentration, and rice seedlings (about 12 cm in length) were dipped for 1 minute in the resulting aqueous dilute solutions. After air-drying, the seedlings were placed in test tube, and 10 adults of a resistant strain of green rice leafhopper (Nephotetix cincticecs) were liberated in the tube. After one day, the dead and alive of the adults were examined to obtain LC50 (50% lethal concentration)(two replications).

Data set [6] relates to tobacco cutworms (Spodoptera litura). As to the kind of experiment: Test Example 2: mortality of tobacco cutworm 4th instar larvae on treated artificial feed. As to conditions: 144 h, 2 ml in 13 g artificial feed, six days after, two replications. An excerpt:
Two ml of thus diluted solutions were impregnated into the artificial feeds (13 g) for tobacco cutworms (Spodoptera litura) and thus prepared feeds were placed in polyethylene cups of 11 cm in diameter, respectively. Ten of the 4th instar larvae were liberated thereon.
Six days after, the dead and alive of the larvae were examined to calculate the mortality (two replications).

Data set [7] relates to brown rice planthopper (Nilaparvata lugens). Kind of data set: Test Example 4: LC50 against adults of brown rice planthopper (rice seedling dipping). As to conditions: 24 h, rice seedlings dipped, 10 adults, after one day, two replications. From the text: After air-drying, the seedlings were placed in a test tube, and 10 adults of brown rice planthopper (Nilaparvata lugens) were liberated in the tube.

In data set [8] the test system is rice stem borer (Chilo suppressalis). As to the kind of experiment: Test Example 5: LC50 against rice stem borer larvae (artificial feed). The following applies: larvae 10 days old, two replications. An excerpt:
Ten of the larvae of the 10 days old were liberated thereon.

The subject of data set [9] is houseflies (Musca domestica) of WHO strains. Kind of data set: Test Example 6: LC50 against adult female houseflies of WHO strains (sucrose bait). The following applies: filter paper with sucrose bait, adult females, after 48 hours, two replications. From the text: Thirty milligrams of sucrose were uniformly placed on the filter paper as bait. Thereafter, 10 adult female houseflies (Musca domestica) of WHO strains were liberated in the cup, which was then covered witha lid.

The mark [10] stands for this setting: read-out: Mortality (%) liberated 4 days after application.
The mark [11] stands for this setting: read-out: Mortality (%) liberated just after air-drying.
Where [12] appears, read: rice seedlings dipped 1 minute, 10 adults, after one day, two replications.

Values after ≈ are worked out from the molar mass of the structure shown. Read-outs that look alike come from different tables or passages of the source.

Here are results for 18 molecules from US4772633A, “6-pyridyl- and 6-phenyl-3-phenyl-1-hexenes and -1-hexynes, composition containing them, and insecticidal and acaricidal method of using them” (Sumitomo Chemical Company, Limited, priority 1986, dated 1988).

For `C=CC(C)(CCCc1cccc(Oc2ccccc2)c1)c1ccc(OCC)cc1` (stereo not drawn) [(1), 3-(4-ethoxyphenyl)-3-methyl-6-(3-phenoxyphenyl)-1-hexene], the mortality at 100 ppm in [1] (setting [10]) and in [1] (setting [11]) was 100% in each case. The Degree of damage result in [2] is “- ~ +”. For the same molecule, in data set [3], the “Inhibitory ratio of emergence” value is listed as “A (90% or more)”. This molecule also yielded a mortality at 3.5 ppm in data set [3] above 90%.
Regarding `C=CC(C)(CCCc1ccc(F)c(Oc2ccccc2)c1)c1ccc(OCC)cc1` (stereo not drawn) [(2), 3-(4-Ethoxyphenyl)-3-methyl-6-(3-phenoxy-4-fluorophenyl)-1-hexene], in data set [1] (setting [10]), the mortality at 100 ppm is 100%. The mortality at 100 ppm in data set [1] (setting [11]) was 100%. Besides, the Degree of damage result in [2] is recorded as “-”. In addition, in [3], the “Inhibitory ratio of emergence” value is on record as “A (90% or more)” and the mortality at 3.5 ppm is above 90%.
Regarding `C#CC(C)(CCCc1cccc(Oc2ccccc2)c1)c1ccc(OCC)cc1` (stereo not drawn) [(3), 3-(4-ethoxyphenyl)-3-methyl-6-(3-phenoxyphenyl)-1-hexyne], the mortality at 100 ppm in data set [1] (setting [10]) is 95%. In addition, in data set [1] (setting [11]), the mortality at 100 ppm was determined as 100%. In [2], the Degree of damage result is listed as “-”. For the same molecule, the “LC50 value (fish toxicity)” value in data set [4] is above 10 ppm. In data set [3], the “Inhibitory ratio of emergence” value is given as “A (90% or more)” and the mortality at 3.5 ppm was above 90%.
Turning to `C#CC(C)(CCCc1ccc(F)c(Oc2ccccc2)c1)c1ccc(OCC)cc1` (stereo not drawn) [(4), 3-(4-Ethoxyphenyl)-3-methyl-6-(3-phenoxy-4-fluorophenyl)-1-hexyne], the mortality at 100 ppm in data set [1] (setting [10]) and in data set [1] (setting [11]) was 100% each time. For the same molecule, the Degree of damage entry in data set [2] is given as “-”. Moreover, the “LC50 value (fish toxicity)” value in [4] is given as above 10 ppm. Also, the “Inhibitory ratio of emergence” value in data set [3] is listed as “A (90% or more)”. This molecule had a mortality at 3.5 ppm in data set [3] above 90%.
`C#CC(C)(CCCc1cccc(Oc2ccccc2)c1)c1ccc(OCC=C)cc1` (stereo not drawn) [(7), 3-(4-allyloxyphenyl)-3-methyl-6-(3-phenoxyphenyl)-1-hexyne]: in data set [1] (setting [10]), the mortality at 100 ppm worked out at 93%. In addition, in [1] (setting [11]), the mortality at 100 ppm is 100%. In addition, the Degree of damage entry in [2] is “-”. Moreover, in [3], the “Inhibitory ratio of emergence” value was “A (90% or more)” and the mortality at 3.5 ppm fell in the range of 10 to 90%.
For the molecule `C#CC(C)(CCCc1cccc(Oc2ccccc2)c1)c1ccc(C(F)(F)F)cc1` (stereo not drawn) [(13), 3-(4-Trifluoromethylphenyl)-3-methyl-6-(3-phenoxyphenyl)-1-hexyne], the LC50 in data set [5] came to 10 µg/mL (≈ 24.5 µM). The Degree of damage entry in [2] is given as “-”. This molecule also yielded a mortality at 150 ppm in data set [6] of 100%. In data set [3], the “Inhibitory ratio of emergence” value is “A (90% or more)” and the mortality at 3.5 ppm is above 90%.
Take `C#CC(C)(CCCc1cccc(Oc2ccccc2)c1)c1ccc(OCC)c(Cl)c1` (stereo not drawn) [(16), 3-(3-Chloro-4-ethoxyphenyl)-3-methyl-6-(3-phenoxyphenyl)-1-hexyne]: the Degree of damage entry in data set [2] is reported as “-”. Moreover, in data set [3], the “Inhibitory ratio of emergence” value was “A (90% or more)” and the mortality at 3.5 ppm was in the range of 10 to 90%.
With `C#CC(C)(CCCc1cccc(Oc2ccccc2)c1)c1ccc(OC(F)F)cc1` (stereo not drawn) [(17), 3-(4-difluoromethoxyphenyl)-3-methyl-6-(3-phenoxyphenyl)-1-hexyne], the Degree of damage result in data set [2] is reported as “-”. Besides, in [3], the “Inhibitory ratio of emergence” value is on record as “A (90% or more)” and the mortality at 3.5 ppm was above 90%.
`C#CC(C)(CCCc1cccc(Oc2ccccc2)n1)c1ccc(OCC)cc1` (stereo not drawn) [(18), 3-(4-ethoxyphenyl)-3-methyl-6-(6-phenoxypyridin-2-yl)-1-hexyne]: in [2], the Degree of damage result is on record as “- ~ +”. In data set [3], the “Inhibitory ratio of emergence” value is reported as “A (90% or more)” and the mortality at 3.5 ppm was above 90%.
Turning to `C#CC(C)(CCCc1ccc(F)c(Oc2ccccc2)n1)c1ccc(OCC)cc1` (stereo not drawn) [(20)], the Degree of damage result in [2] was “- ~ +”. Also, in [3], the “Inhibitory ratio of emergence” value is “A (90% or more)” and the mortality at 3.5 ppm is above 90%.
For `C#CC(C)(CCCc1cccc(Oc2ccccc2)c1)c1ccc(Cl)cc1` (stereo not drawn) [(25), 3-(4-Chlorophenyl)-3-methyl-6-(3-phenoxyphenyl)-1-hexyne], in that order: “-”, “A (90% or more)” and above 90%.
Turning to `C#CC(C)(CCCc1ccc(F)c(Oc2ccccc2)c1)c1ccc(C(F)(F)F)cc1` (stereo not drawn) [(37), 3-(4-Trifluoromethylphenyl)-3-methyl-6-(3-phenoxy-4-fluorophenyl)-1-hexyne], in data set [5] (setting [12]), the LC50 was 14 µg/mL (≈ 32.8 µM). In [3], the “Inhibitory ratio of emergence” value was “A (90% or more)” and the mortality at 3.5 ppm is above 90%.
For `C#CC(C)(CCCc1ccc(F)c(Oc2ccccc2)c1)c1ccc(CC)cc1` (stereo not drawn) [(39), 3-(4-Ethylphenyl)-3-methyl-6-(3-phenoxy-4-fluorophenyl)-1-hexyne], in data set [2], the Degree of damage result was “- ~ +”. Also, in [3], the “Inhibitory ratio of emergence” value is “A (90% or more)” and the mortality at 3.5 ppm was above 90%.
For the molecule `C#CC(CCCc1ccc(F)c(Oc2ccccc2)c1)c1ccc(OCC)cc1` (stereo not drawn) [(43), 3-(4-Ethoxyphenyl)-6-(3-phenoxy-4-fluorophenyl)-1-hexyne], the Degree of damage entry in data set [2] is on record as “- ~ +”. In data set [3], the “Inhibitory ratio of emergence” value is “A (90% or more)” and the mortality at 3.5 ppm was above 90%.
Consider `CCC(C)(CCCc1cccc(Oc2ccccc2)c1)c1ccc(Cl)cc1` (stereo not drawn) [(A), reference compound], for which the LC50 in data set [5] was around 500 µg/mL (≈ 1320 µM); in [7], above 500 µg/mL; in data set [8], 230 µg/mL (≈ 607 µM); in data set [9] it was around 500 µg/mL (≈ 1320 µM). The mortality at 100 ppm was 44% in data set [1] (setting [10]) and 71% in data set [1] (setting [11]). The Degree of damage result in data set [2] is reported as “+ ~ ++”.
As to `CCOc1ccc(C(C)(C)COCc2cccc(Oc3ccccc3)c2)cc1` [(B), reference compound], the mortality at 100 ppm was found to be 65% in [1] (setting [10]) and 100% in [1] (setting [11]). The Degree of damage entry in [2] is reported as “+ ~ ++”.
As to `CCC(C)c1ccccc1OC(=O)NC` (stereo not drawn) [(C), BPMC, reference compound], the mortality at 100 ppm was 6% in data set [1] (setting [10]) and 100% in data set [1] (setting [11]).
Regarding `CCOC(=O)CC(SP(=S)(OC)OC)C(=O)OCC` (stereo not drawn) [(D), Malathion, reference compound], the LC50 in data set [5] (setting [12]) is around 500 µg/mL (≈ 1510 µM).

The mortality is the percentage killed. The LC50 is the concentration lethal to half of the exposed cells or organisms.
